Values of other authors in patent US7611715B2, “Agaricus extract for preventing the induction or metastasis of cancer” (SSI Co., Ltd., priority 2002, dated 2009).

Conditions: calculated

For `CCOC(N)=O` [Urethane, ethyl carbamate], the safety dose (virtually safe dose, VSD) in human for liver cancer is given as 7.2e-05 mg/kg body weight.
